Reference: patent publication US10822325B2, “Human GLUT5 specific inhibitors and methods of treatment” (UNM RAINFOREST INNOVATIONS, priority 2015, dated 2020)
“Also recorded” adds a separate entry of the source.

Columns and labels:
human GLUT3 = target: T1, human GLUT3 (Homo sapiens, UniProt P11169); assay: Glucose entrance counter-flow transport in GLUT3 proteoliposomes; format: biochemical; conditions: 2 mM compound
T1 construct: Full length DNA was subcloned into pFastBac1 (Life Technologies) vector with a N-terminal hexahistidine tag; hexahistidine (N); made in house; host or cells: Sf21 insect cells (baculovirus, pFastBac1)
T1 sequence (P11169 1-496): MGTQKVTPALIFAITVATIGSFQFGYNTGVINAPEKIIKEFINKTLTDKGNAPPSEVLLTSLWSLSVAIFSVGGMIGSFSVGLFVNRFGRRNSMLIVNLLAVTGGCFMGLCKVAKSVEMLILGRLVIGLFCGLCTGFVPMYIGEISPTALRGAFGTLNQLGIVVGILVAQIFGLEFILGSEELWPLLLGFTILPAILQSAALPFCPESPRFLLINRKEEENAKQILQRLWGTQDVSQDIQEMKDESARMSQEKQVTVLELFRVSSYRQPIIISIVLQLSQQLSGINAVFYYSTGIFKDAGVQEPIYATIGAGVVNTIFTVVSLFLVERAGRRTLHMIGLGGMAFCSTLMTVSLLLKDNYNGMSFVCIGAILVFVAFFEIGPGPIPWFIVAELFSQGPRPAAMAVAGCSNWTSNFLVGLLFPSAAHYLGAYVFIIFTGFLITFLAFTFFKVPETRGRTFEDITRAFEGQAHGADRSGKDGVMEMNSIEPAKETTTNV
Method: (§1) cDNAs of GLUT1, 3, 4 and 5 were purchased from Open Biosystems (GE Healthcare). cDNAs of GLUT2 was a gift from Prof. Graeme Bell at University of Chicago. Full length DNA was subcloned into pFastBac1 (Life Technologies) vector with a N-terminal hexahistidine tag. Bacmids were generated in DH10Bac E. coli cells (Life Technologies). Baculoviruses were produced using Cellfectin II Reagent and amplified in Sf21 insect cells (Life Technologies). Cells were maintained at 26° C., and P1 (10^6 pfu/mL) was collected from infected cells after 72 hours. SF21 cells were propagated in HyClone SFX-Insect media (GE Healthcare), supplemented with 5% fetal bovine serum (Biowest), 4.8 mM glutamine, antibiotics (100 units/mL Penicillin G and 100 μg/mL streptomycin sulfate) and amphotericin B (2.5 μg/mL). […]
(§2) For the entrance counterflow transport in proteoliposomes, the assay was started by the addition of 5 μL proteoliposomes solution (OD600 nm ˜30) to 200 μL, assay solution, containing 10 μM ^14C-radiolabeled glucose (for GLUT1 wild-type or F379H mutant and GLUT2-4) or fructose (for GLUT5 wild-type or H387F mutant and GLUT2) (Moravek Biochemicals) in 100 mM KPi buffer at pH 7.5. After one minute (or different specified time points when the time-dependent counter-flow transport activity was measured), the transport was stopped with ice-chilled quench buffer [0.1 M KPi (pH 5.5) and 0.1 M lithium chloride]. […]

GLUT5H387F = target: T2, GLUT5H387F (Homo sapiens, UniProt P22732, H387F); assay: Fructose entrance counter-flow transport in GLUT5H387F mutant proteoliposomes; format: biochemical; conditions: 2 mM compound
T2 construct: Full length DNA was subcloned into pFastBac1 (Life Technologies) vector with a N-terminal hexahistidine tag; hexahistidine (N); made in house; host or cells: Sf21 insect cells (baculovirus, pFastBac1)
T2 sequence (P22732 1-501 H387F): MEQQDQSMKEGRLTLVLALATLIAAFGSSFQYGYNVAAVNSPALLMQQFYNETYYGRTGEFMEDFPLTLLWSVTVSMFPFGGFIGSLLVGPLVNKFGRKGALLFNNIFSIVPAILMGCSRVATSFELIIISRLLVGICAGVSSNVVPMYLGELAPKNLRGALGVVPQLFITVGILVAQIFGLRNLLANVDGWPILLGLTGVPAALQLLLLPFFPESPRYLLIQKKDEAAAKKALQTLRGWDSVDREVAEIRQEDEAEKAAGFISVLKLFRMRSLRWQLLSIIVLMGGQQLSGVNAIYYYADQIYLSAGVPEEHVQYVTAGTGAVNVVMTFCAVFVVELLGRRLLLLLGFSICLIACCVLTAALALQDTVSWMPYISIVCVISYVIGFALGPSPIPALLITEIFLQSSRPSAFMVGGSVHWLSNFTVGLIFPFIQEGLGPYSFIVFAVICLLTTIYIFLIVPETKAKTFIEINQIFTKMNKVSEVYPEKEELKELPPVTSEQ
Method: as §1, §2

In the case of `CS(=O)(=O)c1ccc(Nc2ccc3c(c2)OCO3)c([N+](=O)[O-])c1` [MSNBA, N-[4-(methylsulfonyl)-2-nitrophenyl]-1,3-benzodioxol-5-amine], the “effect on GLUT3 glucose transport” value (human GLUT3) is reported as “did not affect; also recorded: did not influence”, the “activity retained by GLUT5H387F” value (GLUT5H387F) is reported as 93% and the “effect on GLUT5H387F fructose transport” value (GLUT5H387F) is reported as “largely unaffected; also recorded: almost unsusceptible”.
